Data on 50 compounds can be found in PubChem BioAssay AID2842 (Southern Research Institute, 2010).

Molecules are shown by their SMILES. Converted amounts (≈) assume the structure as drawn.

The subject of this test is M. tuberculosis H37Rv growth inhibition. In words: Mycobacterium tuberculosis H37Rv growth inhibition, putative kinase inhibitor library, confirmatory dose response (AID 2842).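 Also: bacteria incubated one week before Alamar blue readout.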

As usually defined, the IC90 is the concentration at which the effect reaches the 90% level. For `CCSc1ccc(CC(=O)Nc2nnc(-c3ccc4c(c3)OCCO4)o2)cc1`, the IC90 was 3.57 µg/mL (≈ 8.98 µM). In the case of `Cc1ccc2sc(N(CCCn3ccnc3)C(=O)COc3ccccc3)nc2c1C` it was 5.39 µg/mL (≈ 12.8 µM); in that of `O=C(Nc1nnc(-c2ccc3c(c2)CCCC3)o1)c1ccc(Cl)s1`, 3.63 µg/mL (≈ 10.1 µM); in that of `COc1cc2ccccc2cc1C(=O)Nc1nnc(-c2cc(C)ccc2C)o1`, 1.23 µg/mL (≈ 3.29 µM). In the case of `O=C(CCSc1ccccc1)Nc1nnc(-c2ccccc2)o1` it was 12.9 µg/mL (≈ 39.7 µM).

As to `Nc1[nH]nc2nc(N3CCCCC3)nc(-c3ccc4c(c3)OCO4)c12`, the IC90 was 11.6 µg/mL (≈ 34.3 µM).

For the compound `C=CCOC(=O)COc1ccc2c(-c3cc4ccccc4oc3=O)cc(=O)oc2c1`, the concentration for an effect of 90% (IC90) is 4.35 µg/mL (≈ 10.8 µM). For `CCCC(=O)Nc1nnc(-c2ccc(C)cc2C)o1`, the IC90 was 2.25 µg/mL (≈ 8.68 µM). For the compound `CN(C)S(=O)(=O)c1ccc(C(=O)Nc2nnc(-c3cc(Cl)ccc3Cl)o2)cc1`, the IC90 was 3.89 µg/mL (≈ 8.81 µM). In the case of `O=C(CCCN1C(=O)/C(=C\c2ccco2)SC1=S)Nc1ccccn1` it was 4.87 µg/mL (≈ 13 µM); in that of `O=C(c1ccc(F)cc1)N1N=C(c2c(-c3ccccc3)c3cc(Br)ccc3[nH]c2=O)CC1c1ccco1` (stereo not given), 13.1 µg/mL (≈ 23.5 µM). In the case of `Cc1cc(NS(=O)(=O)c2ccc(NC(=O)CCCOc3ccc(Cl)cc3)cc2)no1` it was 19.1 µg/mL (≈ 42.5 µM); in that of `COc1cccc2sc(N(CCCn3ccnc3)C(=O)c3cccs3)nc12`, 5.7 µg/mL (≈ 14.3 µM). In the case of `CCOC(=O)c1cc(NC(=O)Nc2ccc(Cl)c(Cl)c2)c(C)nc1C` it was 12.4 µg/mL (≈ 32.5 µM); in that of `O=C(Nc1nnc(-c2ccco2)o1)c1ccc2c(c1)OCCO2`, 11.6 µg/mL (≈ 37.1 µM). In the case of `Cc1cccc(C(=O)Nc2nnc(C3=COCCO3)o2)c1`, the IC90 was 3.36 µg/mL (≈ 11.7 µM). For the compound `O=C(Nc1nnc(-c2ccco2)o1)c1ccccc1F`, the IC90 is 6.69 µg/mL (≈ 24.5 µM). `CCOc1cc(-c2nnc(NC(=O)c3cc4ccccc4cc3OC)o2)cc(OCC)c1OCC`: the IC90 was 2.68 µg/mL (≈ 5.61 µM). Take `CSc1nc2cc(NC(=S)NC(=O)c3ccccc3)ccc2s1`: the IC90 was 6.89 µg/mL (≈ 19.2 µM). In the case of `Cc1ccc(C)c2sc(N(CCCn3ccnc3)C(=O)c3ccc(F)cc3)nc12` it was 4.35 µg/mL (≈ 10.6 µM); in that of `COc1cccc2sc(NNC(=O)c3cc(=O)c4ccccc4o3)nc12`, 25.5 µg/mL (≈ 69.5 µM); in that of `CC(C)N1CCc2c(sc(NC(=O)c3ccc([N+](=O)[O-])s3)c2C(N)=O)C1`, 6.33 µg/mL (≈ 16 µM). In the case of `COc1cccc2sc(Nc3nc4c(s3)CC(C)CC4)nc12` (stereo not given) it was 5.79 µg/mL (≈ 17.5 µM); in that of `O=C(O)c1ccccc1NC1=C(Cl)C(=O)N(c2cccc(Cl)c2)C1=O`, 21.3 µg/mL (≈ 56.5 µM); in that of `COc1cccc2sc(Nc3nc4c(s3)CCCC4)nc12`, 5.82 µg/mL (≈ 18.3 µM). In the case of `O=C(Nc1nnc(-c2ccc3c(c2)CCCC3)o1)c1ccccc1F` it was 0.93 µg/mL (≈ 2.76 µM); in that of `COc1cc(OC)cc(C(=O)Nc2nnc(-c3ccc(Br)cc3)o2)c1`, 52.3 µg/mL (≈ 129 µM); in that of `CC(C)Oc1ccc(C(=O)Nc2nnc(-c3cc(Cl)ccc3Cl)o2)cc1`, 13.8 µg/mL (≈ 35.3 µM). In the case of `O=C(Nc1nnc(-c2cc(Cl)ccc2Cl)o1)c1nc2ccccc2s1`, the 90% effect concentration (IC90) was 10.5 µg/mL (≈ 26.7 µM). With `CCOC(=O)N1CCc2c(sc(NC(=O)c3nc4ccccc4s3)c2C(N)=O)C1`, the 90% effect concentration (IC90) was 3.48 µg/mL (≈ 8.08 µM). To `Cc1cc(C)c(-c2csc(NC(=O)c3ccc4c(c3)OCCO4)n2)c(C)c1` belongs 7.63 µg/mL (≈ 20.1 µM); to `Cc1ccc(C)c(-c2nnc(NC(=O)c3cccc(Br)c3)o2)c1`, 12.6 µg/mL (≈ 33.9 µM); to `COc1cc2c3nnc(-c4ccc(C)cc4)c-3cn(Cc3ccc(Cl)cc3)c2cc1OC`, 4.8 µg/mL (≈ 10.8 µM). To `O=C(Nc1nc2c(s1)CCc1ccccc1-2)c1cccc(Br)c1` belongs 16.8 µg/mL (≈ 43.6 µM); to `O=C(Cc1ccc(F)cc1)N(CCCn1ccnc1)c1nc2c(F)cccc2s1`, 3.66 µg/mL (≈ 8.87 µM); to `Cc1ccc(C2CC(c3c(-c4ccccc4)c4cc(Cl)ccc4[nH]c3=O)=NO2)cc1` (stereo not given), 12.4 µg/mL (≈ 29.9 µM). In the case of `C=CCOC(=O)C1=C(C)NC(SCC(=O)OCC)=C(C#N)C1c1cccs1` (stereo not given) it was 4.44 µg/mL (≈ 11 µM).

As for `COc1ccc(OC)c2sc(N(CCCn3ccnc3)C(=O)c3ccco3)nc12`, the IC90 was 6.7 µg/mL (≈ 16.2 µM). To `O=C(CCSc1ccccc1)Nc1nc(-c2ccccn2)cs1` belongs 21.8 µg/mL (≈ 63.9 µM). In the case of `O=C1Nc2ccccc2/C1=C/C(=O)c1ccc([N+](=O)[O-])cc1` it was 47.7 µg/mL (≈ 162 µM). Turning to `O=C1CN(C(=O)c2cc(Br)ccc2Cl)C(c2ccccc2)c2cc(F)ccc2N1` (stereo not given), the IC90 is 26.1 µg/mL (≈ 55 µM). `Cc1ccc(C2=NC(C)(C)N=C2SCC(=O)Nc2ccc(C)c(C)c2)cc1`: the 90% effect concentration (IC90) was 23.5 µg/mL (≈ 61.9 µM). To `O=C(NNc1nc2c(F)cc(F)cc2s1)c1nc2ccccc2s1` belongs 21.8 µg/mL (≈ 60.2 µM); to `CSc1ccc2nc(Nc3nnc(-c4ccc5c(c4)OCCO5)o3)sc2c1`, 15.1 µg/mL (≈ 38 µM). To `O=C(Nc1nnc(-c2ccccc2Cl)o1)c1cccc(Oc2ccccc2)c1` belongs 0.86 µg/mL (≈ 2.19 µM); to `O=C(Nc1nnc(-c2ccc(F)cc2)o1)c1cccc(Br)c1`, 93.6 µg/mL (≈ 259 µM). For the compound `CC(=O)CSc1nc2c([nH]c3ccccc32)c(=O)n1-c1cc(C)ccc1C`, the IC90 is 22 µg/mL (≈ 58.2 µM). Consider `Cc1ccc(C(=O)Nc2nnc(-c3cc(C)ccc3C)o2)c(C)c1`, for which the IC90 is 7.29 µg/mL (≈ 22.7 µM). In the case of `CCN1C(=O)c2cccc3c(NC(=O)c4ccc(S(=O)(=O)N(C)C)cc4)ccc1c23` it was 24.2 µg/mL (≈ 57.2 µM); in that of `O=C(CSc1ncnc2c1nnn2Cc1ccc(F)cc1)N1CCOCC1`, 19.8 µg/mL (≈ 50.9 µM).
